Assay results reported in patent US7128897B2, “Aerosolized anti-infectives, anti-inflammatories, and decongestants for the treatment of sinusitis” (Naryx Pharma, Inc., priority 1999, dated 2006).

Columns and labels:
sinusitis = type: in vivo, human; details: for efficacy of nose drop: nose drop (tobramycin 80 mg/ml; Mupirocin calcium 2%)
Description: A person had been suffering from sinusitis for most of their adult life. These sinusitis episodes seemed to be triggered by allergies. They historically had three-four (3–4) episodes of sinusitis each year, which were treated with oral antibiotics for four-eight (4–8) weeks per episode. These oral antibiotic regimens produced yeast infections, which were treated with Diflucan® (fluconazole). Relief from the headaches, malaise, facial pressure and pain, yellow-green nasal discharge, coughing and fever took up to six weeks and were treated with narcotic and non narcotic analgesics, decongestants, decongestant nasal sprays, cough suppressants, and nasal rinses. Their allergies were treated with antihistamines and anti-inflammatory agents. In an effort to reduce the duration of their sinusitis episodes, a nose drop of tobramycin 80 mg/ml was administered. […] The medication was irritating; and in order to administer the drops and try to get them into the sinus cavity, the patient had to hold their head back. This caused intolerable pain resulting in the discontinuation of the therapy. A nose drop of Bactoban® (Mupirocin calcium 2%) was tried. […] In order to eliminate the pain caused by holding their head back when administering nose drops, a nose drop of tobramycin was administered after the patient had been on oral antibiotics for a period of time.

paranasal sinusitis = details: 4 ml of 3% FOM solution; ultrasonic-type nebulizer compared with jet-type; cited from earlier work
[1] = tested on: clinical isolates from sinusitis patients; details: one percent (1%) solution used with a nebulizer; cited from earlier work
sinus infection = assay: Nebulized antibiotic treatment of sinusitis patients (case reports, Patients A, B, C); type: in vivo, human; details: for time to "dumping" of green, purulent nasal discharge: nebulized three times daily
Description: Thereafter, a preparation of tobramycin 80 mg/ml was administered using 3 ml in a Pari LC Star® nebulizer cup with adult mask attached and a Pari Proneb® compressor. The medication was nebulized three (3) times daily. After four days of therapy, the patient experienced a “dumping” of green, purulent nasal discharge. The therapy was continued for a total of seven (7) days. […] Another seven (7) day regimen of nebulized tobramycin was given to the patient.
A preparation of cefuroxime 285 mg in 2.5 ml sterile water for injection was administered three (3) times daily using a Pari LC Star® nebulizer cup with adult mask attached and a Pari Proneb® compressor. […] After one day of therapy, a Pari Turbo® compressor was substituted for the Pari Proneb® compressor. The patient experienced a “dumping” of green, purulent nasal discharge after (3) days of therapy.
After the seven (7) days of treatment with nebulized cefuroxime using the Pari Turbo® compressor and the Pari LC Star® nebulizer cup with mask, the patient has remained free of sinus infections for nine (9) months. They have continued to experience problems with their allergies, and while in the past these allergies triggered sinus infections, this time no such infection has recurred.
A person had been experiencing sinus infections off and on during their adult life. They were treated with cefuroxime 285 mg in 2.5 ml of sterile water for injection three (3) times daily using a Pari LC Star® nebulizer cup with adult mask attached and a Pari Turbo® compressor. The patient experienced a “dumping” of green, purulent nasal discharge after eight (8) treatments. The therapy was continued for a total of seven (7) days. No other antibiotics were given. This patient has been free from sinus infections for six (6) months.
They were treated with cefuroxime 285 mg in 2.5 ml of sterile water for injection three (3) times daily using a Pari LC Star® nebulizer cup with adult mask attached and a Pari Turbo® compressor. The patient experienced a “dumping” of green, purulent nasal discharge after eight (8) treatments. The therapy was continued form a total of seven (7) days. No other antibiotics were given. This patient has been free from sinus infections for six (6) months.

refractory sinusitis = details: large particle saline aerosol therapy with tobramycin added; cited from earlier work
[2] = Patient A, second 7 day regimen of nebulized tobramycin

C/C(=C\C(=O)OCCCCCCCCC(=O)[O-])C[C@@H]1OC[C@H](C[C@@H]2O[C@H]2[C@@H](C)[C@H](C)O)[C@@H](O)[C@H]1O.C/C(=C\C(=O)OCCCCCCCCC(=O)[O-])C[C@@H]1OC[C@H](C[C@@H]2O[C@H]2[C@@H](C)[C@H](C)O)[C@@H](O)[C@H]1O.O.O.[Ca+2] [Bactoban, Mupirocin calcium]
efficacy of nose drop (sinusitis; Patient A): not efficacious

C[C@@H]1O[C@@H]1P(=O)(O)O [FOM, fosfomycin]
delivery to maxillary sinus surface, ultrasonic-type vs jet-type nebulizer (paranasal sinusitis): higher concentration of FOM to the maxillary sinus surface

CO/N=C(\C(=O)N[C@@H]1C(=O)N2C(C(=O)O)=C(CSc3nnnn3C)CS[C@H]12)c1csc(N)n1 [cefmenoxime]
minimum inhibitory concentrations [1]: minimum inhibitory concentrations were lower

CO/N=C(\C(=O)N[C@@H]1C(=O)N2C(C(=O)O)=C(COC(N)=O)CS[C@H]12)c1ccco1 [cefuroxime, Cefuroxime]
adverse event during nebulized therapy (sinus infection; Patient A, 285 mg in 2.5 ml nebulized three times daily, 7 days): contracted a yeast infection | time free of sinus infections after treatment (sinus infection; Patient A, 285 mg in 2.5 ml nebulized three times daily, 7 days, Pari Turbo compressor): 9 months | time to "dumping" of green, purulent nasal discharge (sinus infection; Patient A): 3 days | number of treatments until "dumping" of green, purulent nasal discharge (sinus infection; Patient B, 285 mg in 2.5 ml nebulized three times daily): 8 treatments | time free from sinus infections after treatment (sinus infection; Patient B, 285 mg in 2.5 ml nebulized three times daily, 7 days): 6 months | number of treatments until "dumping" of green, purulent nasal discharge (sinus infection; Patient C, 285 mg in 2.5 ml nebulized three times daily): 8 treatments | time free from sinus infections after treatment (sinus infection; Patient C, 285 mg in 2.5 ml nebulized three times daily, 7 days): 6 months

NC[C@H]1O[C@H](O[C@H]2[C@H](O)[C@@H](O[C@H]3O[C@H](CO)[C@@H](O)[C@H](N)[C@H]3O)[C@H](N)C[C@@H]2N)[C@H](N)C[C@@H]1O [tobramycin, Tobramycin]
efficacy of nose drop (sinusitis; Patient A): did not seem to work | efficacy of nose drop given after oral antibiotics (sinusitis; Patient A, nose drop after a period on oral antibiotics): did not seem to work | tolerability of nose drop (sinusitis; human, in vivo): irritating | benefit of addition to saline aerosol (refractory sinusitis): minimal benefit | relapse after first seven day regimen (sinus infection; Patient A, first 7 day regimen of nebulized tobramycin): relapse was experienced within a month | time to "dumping" of green, purulent nasal discharge (sinus infection; Patient A): four | outcome after second seven day regimen (sinus infection; [2]): sinus infection seemed to be eliminated | time to recurrence after second seven day regimen (sinus infection; [2]): ≤ 2 months | outcome after first seven day regimen (sinus infection; Patient A, tobramycin 80 mg/ml, 3 ml nebulized three times daily, 7 days): sinus infection had been eliminated
